Test results: article PMC3032545, “A c-di-GMP Effector System Controls Cell Adhesion by Inside-Out Signaling and Surface Protein Cleavage” (PLoS Biology, 2011)

Target: T1, LapD (c-di-GMP receptor) with LapG (periplasmic protease, read-out) (Pseudomonas fluorescens, UniProt Q3KK31)
T1 construct: full-length native LapD and LapG in clarified Pf0-1 cell extracts; LapD mutants from plasmid pMQ72 in the lapD deletion strain; with Periplasmic cysteine protease LapG (transglutaminase-like cysteine peptidase, DUF920)
T1 sequence (Q3KK31 1-648): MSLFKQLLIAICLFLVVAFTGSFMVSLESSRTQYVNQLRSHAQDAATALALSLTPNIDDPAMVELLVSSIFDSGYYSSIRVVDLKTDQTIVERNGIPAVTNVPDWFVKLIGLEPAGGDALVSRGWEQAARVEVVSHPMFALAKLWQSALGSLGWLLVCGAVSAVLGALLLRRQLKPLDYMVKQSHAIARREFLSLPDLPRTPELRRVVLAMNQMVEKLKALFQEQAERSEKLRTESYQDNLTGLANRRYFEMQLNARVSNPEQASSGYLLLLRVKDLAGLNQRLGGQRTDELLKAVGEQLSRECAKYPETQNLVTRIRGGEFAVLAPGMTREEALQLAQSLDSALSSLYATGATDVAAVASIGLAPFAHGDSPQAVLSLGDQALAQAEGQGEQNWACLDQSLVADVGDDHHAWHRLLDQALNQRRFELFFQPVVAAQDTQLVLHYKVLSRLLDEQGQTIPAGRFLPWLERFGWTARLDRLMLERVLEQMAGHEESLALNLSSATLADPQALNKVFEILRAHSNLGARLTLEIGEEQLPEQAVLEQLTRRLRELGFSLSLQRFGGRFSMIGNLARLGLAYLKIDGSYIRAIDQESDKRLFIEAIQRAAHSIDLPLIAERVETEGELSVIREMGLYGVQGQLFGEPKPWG
T1 sequence (Q3KK32 50-251 partner): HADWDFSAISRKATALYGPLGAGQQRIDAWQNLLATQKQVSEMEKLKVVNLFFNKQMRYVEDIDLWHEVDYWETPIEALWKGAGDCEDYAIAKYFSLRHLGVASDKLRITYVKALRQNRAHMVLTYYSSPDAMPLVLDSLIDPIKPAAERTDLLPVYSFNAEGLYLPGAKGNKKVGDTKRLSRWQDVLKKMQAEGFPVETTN
Assay: inhibition of LapG cleavage of N-Term-LapA in cell extract, anti-His Western blot densitometry
Format: biochemical
Details: LapD-dependent: c-di-GMP binds LapD EAL domain, not LapG; wild-type Pf0-1 extract; 30 pmol N-Term-LapA, 100 min, room temperature

Structure (SMILES): Nc1nc2c(ncn2[C@@H]2O[C@@H]3CO[P@](=O)(O)O[C@H]4[C@@H](O)[C@H](n5cnc6c(=O)[nH]c(N)nc65)O[C@@H]4CO[P@](=O)(O)O[C@H]3[C@H]2O)c(=O)[nH]1 [c-di-GMP]
- IC50: 2.3 ± 1.1 µM
